Tests used:
[1] = Cytotoxicity against human KB/VCR cells after 72 hrs by MTT assay; type: functional, cell-based
[2] = Cytotoxicity against human 95-D cells after 72 hrs by MTT assay; type: functional, cell-based
A549 = assay: Cytotoxicity against human A549 cells after 72 hrs by MTT assay; type: functional, cell-based; settings: A549, 72 h
KB = assay: Cytotoxicity against human KB cells after 72 hrs by MTT assay; type: functional, cell-based
Mus musculus [3] = assay: Toxicity in BALB/c mouse xenografted with human 95-D cells assessed as body weight at 50 mg/kg, ig administered 2 to 3 times a week for 20 days measured post last dose (reference value: 21.6 +/- 0.6 gm); type: organism-based; parameters: dose 50 mg/kg, route intragastric; settings: in vivo, po, 480 h
[4] = Anticancer activity against human 95-D cells xenografted in BALB/c mouse at 50 mg/kg, ig administered 2 to 3 times a week for 20 days measured post last dose relative to control; type: functional; settings: route intragastric
[5] = Anticancer activity against human 95-D cells xenografted in BALB/c mouse assessed as inhibition of tumor growth at 50 mg/kg, ig administered 2 to 3 times a week for 20 days measured post last dose; type: functional; settings: po, 480 h, route intragastric
[6] = Anticancer activity against human 95-D cells xenografted in BALB/c mouse assessed as inhibition of tumor growth at 10 mg/kg administered intramuscularly every other day for 20 days measured post last dose; type: functional; settings: im, 480 h, route intramuscular
[7] = Anticancer activity against human 95-D cells xenografted in BALB/c mouse at 10 mg/kg administered intramuscularly every other day for 20 days measured post last dose relative to control; type: functional; settings: route intramuscular
Mus musculus [8] = assay: Toxicity in BALB/c mouse xenografted with human 95-D cells assessed as body weight at 10 mg/kg administered intramuscularly every other day for 20 days measured post last dose (reference value: 21.6 +/- 0.6 gm); type: organism-based; parameters: dose 10 mg/kg, route intramuscular; settings: in vivo, im, 480 h

| SMILES | IC50 [1] [µM] | IC50 [2] [µM] | IC50 (A549) [µM] | IC50 (KB) [µM] | Activity (Mus musculus [3]) [g] | Activity [4] [%] | inhibition in vivo at 50 mg/kg [5] [%] | inhibition in vivo at 10 mg/kg [6] [%] | Activity [7] [%] | Activity (Mus musculus [8]) [g] |
| --- | --- | --- | --- | --- | --- | --- | --- | --- | --- | --- |
| COc1cc([C@@H]2c3cc4c(cc3[C@@H](Nc3ccc(CCN5CCCCC5)cc3)[C@H]3COC(=O)[C@H]23)OCO4)cc(OC)c1O | 19.1 | 17.2 | 13.4 | 4.21 | – | – | – | – | – | – |
| COc1cc([C@@H]2c3cc4c(cc3[C@@H](Nc3ccc(CC(=O)N5CCCCC5)cc3)[C@H]3COC(=O)[C@H]23)OCO4)cc(OC)c1O | 2.33 | 25.8 | 5.2 | 0.4 | – | – | – | – | – | – |
| CCN(CC)C(=O)Cc1cccc(N[C@@H]2c3cc4c(cc3[C@@H](c3cc(OC)c(O)c(OC)c3)[C@H]3C(=O)OC[C@@H]32)OCO4)c1 | 27.2 | > 50 | 4.78 | 0.42 | – | – | – | – | – | – |
| COc1cc([C@@H]2c3cc4c(cc3[C@@H](N(C(=O)c3ccc(Cl)cc3)c3ccc(NC(=O)c5ccc(Cl)cc5)cc3)[C@H]3COC(=O)[C@H]23)OCO4)cc(OC)c1O | 14.2 | 19.6 | > 50 | > 50 | – | – | – | – | – | – |
| COc1cc([C@@H]2c3cc4c(cc3[C@@H](Nc3ccc(NC(=O)c5ccc(Br)cc5)cc3)[C@H]3COC(=O)[C@H]23)OCO4)cc(OC)c1O | 5.72 | 1.66 | 18.9 | 8.75 | – | – | – | – | – | – |
| COc1cc([C@@H]2c3cc4c(cc3[C@@H](Nc3ccc(CCN(C)C)cc3)[C@H]3COC(=O)[C@H]23)OCO4)cc(OC)c1O | 3.95 | 17.1 | 19 | 2.42 | – | – | – | – | – | – |
| COc1cc([C@@H]2c3cc4c(cc3[C@@H](Nc3ccc(NC(=O)CCc5ccccc5[N+](=O)[O-])cc3)[C@H]3COC(=O)[C@H]23)OCO4)cc(OC)c1O | 5.3 | 0.41 | 8.43 | 6.69 | – | – | – | – | – | – |
| COc1cc([C@@H]2c3cc4c(cc3[C@@H](Nc3ccc(NC(=O)c5ccc(F)cc5)cc3)[C@H]3COC(=O)[C@H]23)OCO4)cc(OC)c1O | 5.31 | 1.08 | 1.56 | 2.91 | – | – | – | – | – | – |
| COc1cc([C@@H]2c3cc4c(cc3[C@@H](Nc3ccc(NC(=O)c5ccc(OC(C)=O)cc5)cc3)[C@H]3COC(=O)[C@H]23)OCO4)cc(OC)c1O | 8.48 | 0.42 | 2.68 | 1.91 | 16.8 | 46.3 | 57.3 | – | – | – |
| COc1cc([C@@H]2c3cc4c(cc3[C@@H](Nc3ccc(NC(=O)c5ccc([N+](=O)[O-])cc5)cc3)[C@H]3COC(=O)[C@H]23)OCO4)cc(OC)c1O | 13.7 | 3.41 | 11 | > 50 | – | – | – | – | – | – |
| COc1cc([C@@H]2c3cc4c(cc3[C@@H](Nc3ccc(NC(=O)/C=C/c5ccccc5)cc3)[C@H]3COC(=O)[C@H]23)OCO4)cc(OC)c1O | 2.8 | 1.25 | > 50 | 6.53 | – | – | – | – | – | – |
| COc1cc([C@@H]2c3cc4c(cc3[C@@H](Nc3ccc(CC(=O)N5CCCC5)cc3)[C@H]3COC(=O)[C@H]23)OCO4)cc(OC)c1O | 2.2 | > 50 | 15.9 | 1.52 | – | – | – | – | – | – |
| CCN(CC)CCc1cccc(N[C@@H]2c3cc4c(cc3[C@@H](c3cc(OC)c(O)c(OC)c3)[C@H]3C(=O)OC[C@@H]32)OCO4)c1 | 3.87 | 14.6 | 7.49 | 0.77 | – | – | – | – | – | – |
| COc1cc([C@@H]2c3cc4c(cc3[C@@H](Nc3cccc(CCN5CCOCC5)c3)[C@H]3COC(=O)[C@H]23)OCO4)cc(OC)c1O | 2.09 | 14.8 | 5.1 | 0.48 | – | – | – | – | – | – |
| COc1cc([C@@H]2c3cc4c(cc3[C@@H](Nc3ccc(COCCCCO)cc3)[C@H]3COC(=O)[C@H]23)OCO4)cc(OC)c1O | 9.55 | 20.3 | 8.5 | 6.6 | – | – | – | – | – | – |
| COc1cc([C@@H]2c3cc4c(cc3[C@@H](Nc3cccc(CN5CCCCC5)c3)[C@H]3COC(=O)[C@H]23)OCO4)cc(OC)c1O | 3.44 | 0.2 | 0.5 | 0.97 | – | – | – | – | – | – |

| SMILES | IC50 [1] [µM] | IC50 [2] [µM] | IC50 (A549) [µM] | IC50 (KB) [µM] | Activity (Mus musculus [3]) [g] | Activity [4] [%] | inhibition in vivo at 50 mg/kg [5] [%] | inhibition in vivo at 10 mg/kg [6] [%] | Activity [7] [%] | Activity (Mus musculus [8]) [g] |
| --- | --- | --- | --- | --- | --- | --- | --- | --- | --- | --- |
| COc1cc([C@@H]2c3cc4c(cc3[C@@H](O[C@@H]3O[C@@H]5CO[C@@H](C)O[C@H]5[C@H](O)[C@H]3O)[C@H]3COC(=O)[C@H]23)OCO4)cc(OC)c1O [ETOPOSIDE] | 83.4 | 20.2 | 2.56 | 4.61 | – | – | – | – | – | – |
| COc1cc([C@@H]2c3cc4c(cc3[C@@H](Nc3ccc(NC(=O)CCc5ccccc5)cc3)[C@H]3COC(=O)[C@H]23)OCO4)cc(OC)c1O | 3.7 | 1.15 | 3.31 | 6.88 | – | – | – | 9.2 | 62.4 | 20.2 |
| COc1cc([C@@H]2c3cc4c(cc3[C@@H](N(C(=O)c3ccc([N+](=O)[O-])cc3)c3ccc(NC(=O)c5ccc([N+](=O)[O-])cc5)cc3)[C@H]3COC(=O)[C@H]23)OCO4)cc(OC)c1O | > 50 | 15.7 | > 50 | > 50 | – | – | – | – | – | – |
| CCN(CC)CCc1ccc(N[C@@H]2c3cc4c(cc3[C@@H](c3cc(OC)c(O)c(OC)c3)[C@H]3C(=O)OC[C@@H]32)OCO4)cc1 | 1.53 | 9.84 | 0.4 | 0.45 | – | – | – | – | – | – |
| COc1cc([C@@H]2c3cc4c(cc3[C@@H](Nc3ccc(NC(=O)c5ccc(Cl)cc5)cc3)[C@H]3COC(=O)[C@H]23)OCO4)cc(OC)c1O | 13.1 | 6.56 | 19.5 | 22.1 | – | – | – | – | – | – |
| COc1cc([C@@H]2c3cc4c(cc3[C@@H](Nc3ccc(COCCCO)cc3)[C@H]3COC(=O)[C@H]23)OCO4)cc(OC)c1O | 5.08 | 12 | 7.45 | 6 | – | – | – | – | – | – |
| COc1cc([C@@H]2c3cc4c(cc3[C@@H](Nc3ccc(COCCO)cc3)[C@H]3COC(=O)[C@H]23)OCO4)cc(OC)c1O | 7.39 | 0.55 | 5.11 | 3.12 | – | – | – | – | – | – |
| COc1cc([C@@H]2c3cc4c(cc3[C@@H](Nc3ccc(CCN(C(C)C)C(C)C)cc3)[C@H]3COC(=O)[C@H]23)OCO4)cc(OC)c1O | 2.2 | 10 | 0.49 | 0.44 | – | – | – | – | – | – |
| COc1cc([C@@H]2c3cc4c(cc3[C@@H](Nc3ccc(CCN5CCCC5)cc3)[C@H]3COC(=O)[C@H]23)OCO4)cc(OC)c1O | 1.57 | 0.036 | 0.24 | 0.21 | – | – | – | – | – | – |
| COc1cc([C@@H]2c3cc4c(cc3[C@@H](Nc3ccc(OCCO)cc3)[C@H]3COC(=O)[C@H]23)OCO4)cc(OC)c1O | 6.51 | 4.13 | 4.54 | 2.88 | – | – | – | 37.5 | 45.4 | 17 |
| COc1cc([C@@H]2c3cc4c(cc3[C@@H](Nc3cccc(CCN5CCCCC5)c3)[C@H]3COC(=O)[C@H]23)OCO4)cc(OC)c1O | 1.78 | 7.4 | 2.75 | 0.43 | – | – | – | – | – | – |
| COc1ccc(CCC(=O)Nc2ccc(N[C@@H]3c4cc5c(cc4[C@@H](c4cc(OC)c(O)c(OC)c4)[C@H]4C(=O)OC[C@@H]43)OCO5)cc2)cc1 | 3.08 | 1.23 | > 50 | > 50 | – | – | – | – | – | – |
| COc1cc([C@@H]2c3cc4c(cc3[C@@H](Nc3ccc(CCN5CCOCC5)cc3)[C@H]3COC(=O)[C@H]23)OCO4)cc(OC)c1O | 1.27 | 11.5 | 1.94 | 0.78 | – | – | – | – | – | – |
| COc1cc([C@@H]2c3cc4c(cc3[C@@H](Nc3cccc(CCN5CCCC5)c3)[C@H]3COC(=O)[C@H]23)OCO4)cc(OC)c1O | 1.85 | 1.17 | 3.91 | 0.39 | – | – | – | – | – | – |
| COc1ccc(C(=O)Nc2ccc(N[C@@H]3c4cc5c(cc4[C@@H](c4cc(OC)c(O)c(OC)c4)[C@H]4C(=O)OC[C@@H]43)OCO5)cc2)cc1 | 9.28 | 0.44 | 3.41 | 6.76 | – | – | – | – | – | – |

Reference: ChEMBL document CHEMBL1649404, “Synthesis and biological evaluation of new 4β-anilino-4'-O-demethyl-4-desoxypodophyllotoxin derivatives as potential antitumor agents” (Eur J Med Chem, 2011)
